# Measurements published in patent publication US20050197338A1, “Substituted pyrazole urea compounds for the treatment of inflammation” (priority 2003, published 2005).
# Molecular target: T1, human IKK-2 (rhIKK-2 homodimer) (Homo sapiens, UniProt O14920)
# T1 construct: FLAG (DYKDDDDKD) (C); made in house; host or cells: insect cells (baculovirus, pFastBac)
# T1 sequence (O14920 1-756): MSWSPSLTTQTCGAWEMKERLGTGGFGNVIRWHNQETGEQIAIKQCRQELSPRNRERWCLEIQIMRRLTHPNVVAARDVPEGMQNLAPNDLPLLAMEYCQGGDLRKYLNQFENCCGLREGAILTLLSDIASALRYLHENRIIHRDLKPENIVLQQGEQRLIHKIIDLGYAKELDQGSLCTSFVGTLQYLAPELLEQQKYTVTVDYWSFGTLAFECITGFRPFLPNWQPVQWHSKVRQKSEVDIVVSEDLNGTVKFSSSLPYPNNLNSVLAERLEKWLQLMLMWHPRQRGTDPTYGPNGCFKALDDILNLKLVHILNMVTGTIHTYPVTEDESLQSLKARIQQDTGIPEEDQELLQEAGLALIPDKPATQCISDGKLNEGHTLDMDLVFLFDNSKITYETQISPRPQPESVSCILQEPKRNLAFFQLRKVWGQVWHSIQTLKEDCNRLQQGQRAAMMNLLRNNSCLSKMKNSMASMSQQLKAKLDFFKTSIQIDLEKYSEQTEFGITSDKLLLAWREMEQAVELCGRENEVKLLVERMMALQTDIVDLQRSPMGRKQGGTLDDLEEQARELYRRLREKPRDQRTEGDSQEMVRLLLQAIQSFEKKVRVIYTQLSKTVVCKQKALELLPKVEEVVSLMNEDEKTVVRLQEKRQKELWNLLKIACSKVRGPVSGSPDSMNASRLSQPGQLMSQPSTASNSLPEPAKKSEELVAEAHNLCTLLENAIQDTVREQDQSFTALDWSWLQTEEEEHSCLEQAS
# Test: IKK-2 Resin Enzyme Assay (Human IKK-2 Enzyme Assay)
# Format: biochemical
# Settings: human IKK-2, resin enzyme assay; read-out: IC50 (μM) hIKK-2
# Method in brief: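 C-terminally FLAG-tagged human IKK-2 homodimer, baculovirus-expressed in insect cells and anti-FLAG purified. Reaction mix: 5 μM biotinylated IκBα peptide (Ser32/Ser36 region), 1 μM ATP with [γ-33P]ATP, 2 mM MgCl2, 2 mM MnCl2, 10 mM NaF, 1 mM DTT, 25 mM HEPES pH 7.6. Incubated 30 min at 25 °C; IC50 derived.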
row,SMILES,IC50
1,"NC(=O)Nc1cn(-c2ccc(Sc3ccc(F)cc3)cc2)nc1C(N)=O [Example 196, 1-(1-(4-(4-fluorophenylthio)phenyl)-3-carbamoyl-1H-pyrazol-4-yl)urea]",0.718 µM
2,"Cc1cc(-n2cc(NC(N)=O)c(C(N)=O)n2)ccc1Cl [Example 302, 4-[(aminocarbonyl)amino]-1-(4-chloro-3-methylphenyl)-1H-pyrazole-3-carboxamide]",0.229 µM
3,"NC(=O)Nc1cn(-c2ccc(-c3cccc(OCc4ncco4)c3)cc2)nc1C(N)=O [Example 254, 4-[(aminocarbonyl)amino]-1-[3′-(1,3-oxazol-2-ylmethoxy)-1,1′-biphenyl-4-yl]-1H-pyrazole-3-carboxamide]",0.352 µM
4,"N#CCOc1cccc(-c2ccc(-n3cc(NC(N)=O)c(C(N)=O)n3)cc2)c1 [Example 166, 4-[(aminocarbonyl)amino]-1-[3′-(cyanomethoxy)-1,1′-biphenyl-4-yl]-1H-pyrazole-3-carboxamide]",0.38 µM
5,"N#CCOc1ccccc1-c1ccc(-n2cc(NC(N)=O)c(C(N)=O)n2)c(F)c1 [Example 250, 4-[(aminocarbonyl)amino]-1-[2′-(cyanomethoxy)-3-fluoro-1,1′-biphenyl-4-yl]-1H-pyrazole-3-carboxamide]",0.279 µM
6,"N#CCOc1cccc(-c2ccc(-n3cc(NC(N)=O)c(C(N)=O)n3)cc2Cl)c1 [Example 220, 4-[(aminocarbonyl)amino]-1-[2-chloro-3′-(cyanomethoxy)-1,1′-biphenyl-4-yl]-1H-pyrazole-3-carboxamide]",1.57 µM
7,"CSc1ccc(-c2cccc(-n3cc(NC(N)=O)c(C(N)=O)n3)c2)cc1 [Example 358, 4-[(aminocarbonyl)amino]-1-[4′-(methylthio)-1,1′-biphenyl-3-yl]-1H-pyrazole-3-carboxamide]",8.57 µM
8,"NC(=O)Nc1cn(-c2ccc(-c3ccc(CN4CCOCC4)cc3)cc2)nc1C(N)=O [Example 34, 4-[(aminocarbonyl)amino]-1-[4′-(morpholin-4-ylmethyl)-1,1′-biphenyl-4-yl]-1H-pyrazole-3-carboxamide]",4.21 µM
9,"CSc1ccccc1-c1cccc(-n2cc(NC(N)=O)c(C(N)=O)n2)c1 [Example 356, 4-[(aminocarbonyl)amino]-1-[2′-(methylthio)-1,1′-biphenyl-3-yl]-1H-pyrazole-3-carboxamide]",> 20 µM
10,"NC(=O)Nc1cn(-c2ccc(-c3cccc(O)c3)cc2)nc1C(N)=O [Example 22, 4-[(aminocarbonyl)amino]-1-(3′-hydroxy-1,1′-biphenyl-4-yl)-1H-pyrazole-3-carboxamide]",1.2 µM
11,"N#Cc1cccc(-c2ccc(-n3cc(NC(N)=O)c(C(N)=O)n3)cc2)c1 [Example 104, 4-[(aminocarbonyl)amino]-1-(3′-cyano-1,1′-biphenyl-4-yl)-1H-pyrazole-3-carboxamide]",0.677 µM
12,"COc1ccccc1CNC(=O)c1ccc(-c2ccc(-n3cc(NC(N)=O)c(C(N)=O)n3)cc2)cc1F [Example 154, 4-[(aminocarbonyl)amino]-1-(3′-fluoro-4′-{[(2-methoxybenzyl)amino]carbonyl}-1,1′-biphenyl-4-yl)-1H-pyrazole-3-carboxamide]",0.26 µM
13,"NC(=O)Nc1cn(-c2cccc(-c3cccc(CO)c3)c2)nc1C(N)=O [Example 49, 4-[(aminocarbonyl)amino]-1-[3′-(hydroxymethyl)-1,1′-biphenyl-3-yl]-1H-pyrazole-3-carboxamide]",2.48 µM
14,"CS(=O)(=O)Nc1ccc(-c2cccc(-n3cc(NC(N)=O)c(C(N)=O)n3)c2)cc1 [Example 59, 4-[(aminocarbonyl)amino]-1-{4′-[(methylsulfonyl)amino]-1,1′-biphenyl-3-yl}-1H-pyrazole-3-carboxamide]",1.64 µM
15,"CCOc1cc(-n2cc(NC(N)=O)c(C(N)=O)n2)ccc1-c1ccc(O)cc1 [Example 274, 4-[(aminocarbonyl)amino]-1-(2-ethoxy-4′-hydroxy-1,1′-biphenyl-4-yl)-1H-pyrazole-3-carboxamide]",> 20 µM
16,"N#CCOc1cccc(-c2ccc(-n3cc(NC(N)=O)c(C(N)=O)n3)c(F)c2)c1 [Example 179, 4-[(aminocarbonyl)amino]-1-[3′-(cyanomethoxy)-3-fluoro-1,1′-biphenyl-4-yl]-1H-pyrazole-3-carboxamide]",0.51 µM
17,"NC(=O)Nc1cn(-c2ccc(-c3cccc(O)c3)c(F)c2)nc1C(N)=O [Example 226, 4-[(aminocarbonyl)amino]-1-(2-fluoro-3′-hydroxy-1,1′-biphenyl-4-yl)-1H-pyrazole-3-carboxamide]",1.06 µM
18,"N#CCCNC(=O)c1cccc(-c2cccc(-n3cc(NC(N)=O)c(C(N)=O)n3)c2)c1 [Example 82, 4-[(aminocarbonyl)amino]-1-(3′-{[(2-cyanoethyl)amino]carbonyl}-1,1′-biphenyl-3-yl)-1H-pyrazole-3-carboxamide]",1.19 µM
19,"N#CCOc1ccccc1-c1ccc(-n2cc(NC(N)=O)c(C(N)=O)n2)cc1Cl [Example 224, 4-[(aminocarbonyl)amino]-1-[2-chloro-2′-(cyanomethoxy)-1,1′-biphenyl-4-yl]-1H-pyrazole-3-carboxamide]",0.327 µM
20,"NC(=O)Nc1cn(-c2ccc(-c3ccccc3O)cc2)nc1C(N)=O [Example 23, 4-[(aminocarbonyl)amino]-1-(2′-hydroxy-1,1′-biphenyl-4-yl)-1H-pyrazole-3-carboxamide]",1.64 µM
21,"NC(=O)Nc1cn(-c2ccc(-c3ccc(C(=O)NCc4ccccc4F)c(F)c3)cc2)nc1C(N)=O [Example 157, 4-[(aminocarbonyl)amino]-1-(3′-fluoro-4′-{[(2-fluorobenzyl)amino]carbonyl}-1,1′-biphenyl-4-yl)-1H-pyrazole-3-carboxamide]",8.08 µM
22,"NC(=O)Nc1cn(-c2cccc(-c3cc(F)cc(F)c3)c2)nc1C(N)=O [Example 350, 4-[(aminocarbonyl)amino]-1-(3′,5′-difluoro-1,1′-biphenyl-3-yl)-1H-pyrazole-3-carboxamide]",> 20 µM
23,"NC(=O)Nc1cn(-c2ccc(-c3ccc(C(=O)NC4CCCc5ccccc54)c(F)c3)cc2)nc1C(N)=O (stereo not shown) [Example 159, 4-[(aminocarbonyl)amino]-1-{3′-fluoro-4′-[(1,2,3,4-tetrahydronaphthalen-1-ylamino)carbonyl]-1,1′-biphenyl-4-yl}-1H-pyrazole-3-carboxamide]",5.97 µM
24,"NC(=O)Nc1cn(-c2cccc(-c3ccc(C4CCCCC4)cc3)c2)nc1C(N)=O [Example 375, 4-[(aminocarbonyl)amino]-1-(4′-cyclohexyl-1,1′-biphenyl-3-yl)-1H-pyrazole-3-carboxamide]",> 20 µM
25,"NC(=O)Nc1cn(-c2ccc(S(=O)(=O)c3ccc(F)cc3)c(Cl)c2)nc1C(N)=O [Example 222, 4-[(aminocarbonyl)amino]-1-{3-chloro-4-[(4-fluorophenyl)sulfonyl]phenyl}-1H-pyrazole-3-carboxamide]",> 20 µM
26,"N#CCc1ccc(-c2cccc(-n3cc(NC(N)=O)c(C(N)=O)n3)c2)cc1 [Example 44, 4-[(aminocarbonyl)amino]-1-[4′-(cyanomethyl)-1,1′-biphenyl-3-yl]-1H-pyrazole-3-carboxamide]",2.08 µM
27,"CC(C)c1ccc(-n2cc(NC(N)=O)c(C(N)=O)n2)cc1 [Example 216, 4-[(aminocarbonyl)amino]-1-(4-isopropylphenyl)-1H-pyrazole-3-carboxamide]",0.159 µM
28,NC(=O)Nc1nn(-c2ccc(-c3ccc(C(F)(F)F)cc3)cc2)cc1C(N)=O [Example 132],18.8 µM
